Legend:
Format in all cases: cell-based
[1] = test system: NIH3T3 cells transformed by ras gene; assay: Detransformation of Cells Transformed by Ras Gene; details: Mus musculus, 24 hours, 2-fold serial dilutions, morphological observation, read-out: MTC: Minimum Concentration Required for the Detransformation of Cells Transformed by Ras Gene
Method: Medium used: 9.5 g of Dulbecco's Eagle MEM medium (Nissui Seiyaku) solution, 20 ml of 7% sodium hydrogen carbonate solution are added to distilled water and a fetal bovine serum (Flow Laboratories, Inc.) was added to a final concentration of 10 v/v % to obtain the medium. The medium (100 μl) was added to a 96-well plate (Sumitomo Bakelite) and NIH3T3 cells transformed by ras gene (5×10^3 cells/well) were seeded. The plate was incubated for 24 hr in a 5% carbon dioxide gas incubator. Then a sample to be tested was added in such a manner as to give 2-fold serial dilutions. After 24 hours, cells were observed morphologically to evaluate the detransformation activity.
Minimum Concentration Required for the Detransformation of Cells Transformed by Ras Gene

[2] = test system: Cell Adhesion of Leukocytes onto Vascular Endothelial Cells of Human Umbilical Vein; assay: Assay of Inhibition Activity Against Cell Adhesion of Leukocytes (HL60 cells) onto Vascular Endothelial Cells of Human Umbilical Vein; details: 16-hour incubation with sample, then TNF 4 hr, HL-60 cells 30 min, Rose Bengal OD570
Method: Assay of Inhibition Activity Against Cell Adhesion of Leukocytes onto Vascular Endothelial Cells of Human Umbilical Vein
Human vascular endothelial cells used had been obtained from human umbilical vein by perfusion method using an enzyme solution of collagenase and have been maintained by subculturing in a culture solution, i.e., M199 medium (Gibco, Inc.) supplemented with 20% fetal bovine serum (FBS; Gibco, Inc.), 100 μg/ml endothelial mitogen (Funakoshi), 90 μg/ml heparin, 50 IU/ml Penicillin and 50 μg/ml Streptomycin. HL60 cells (human myelocytic leukemia cells) were purchased from Flow, Inc. and have been maintained by subculturing in RPMI1640 medium containing 10% FBS.
Four hours later, to each well was added 4 μl of a medium containing a sample at various concentrations. […] After 16-hour-incubation, 4 μl of 1×10^4 μ/ml TNF solution (tumor necrosis factor dissolved in a medium solution) was added and the incubation was continued for 4 hr. The resultant medium solution containing the sample was then filtered with suction and washed (×3) with DMEM solution containing 10% FBS, which was followed by the addition of 200 μl suspension of 3×10^5 HL-60 cells suspended in DMEM containing 10% FBS. The incubation was carried out at 37° C. for 30 min. […] After being allowed to stand for 5 min at room temperature, the supernatant was removed by aspiration, which was followed by washing (×2) with DMEM solution containing 10% FBS. A mixture of ethanol/phosphate-buffered physiological saline (1:1) was added and the resultant mixture was allowed to stand for 30 min to solubilize Rose Bengal pigment, which was followed by the determination of OD570 value on spectrophotometer.

[3] = test system: Vascular Endothelial Cells of Human Umbilical Vein; assay: Assay of Inhibition Against the Cell Growth of Vascular Endothelial Cells of Human Umbilical Vein (MTT method); details: 72 h, 3-day incubation, OD570
Method: Assay of Inhibition Against the Cell Growth of Vascular Endothelial Cells of Human Umbilical Vein
Human vascular endothelial cells used had been obtained from human umbilical vein by perfusion method using an enzyme solution of collagenase and have been maintained by subculturing in a culture solution, i.e., M199 medium (Gibco, Inc.) supplemented with 20% fetal bovine serum (FBS; Gibco, Inc.), 100 μg/ml endothelial mitogen (Funakoshi), 90 μg/ml heparin, 50 IU/ml Penicillin and 50 μg/ml Streptomycin. […] On the next day, to each well was added 10 μl of a medium containing a sample at various concentrations. […] After 3-day-incubation, to the mixture was added 50 μl of 3 mg/ml MTT solution (a solution of 3-(4,5-dimethyl-2-thiazolyl)-2,5-diphenyl-2H-tetrazolium bromide dissolved in a culture solution) and the incubation was continued for 4 hr. Cells and MTT pigment were solubilized by the addition of 50 μl of 20% SDS solution (sodium dodecylsulfate dissolved in 0.02N HCl) and the incubation continued for 1 hr, which was followed by the determination of OD570 value on spectrophotometer.

Row | IC50 [2] | SMILES | minimal effective concentration [1] | IC50 [3]
1 | 5.3 µM | O=C(/C=C/C=C/c1cccc(NS(=O)(=O)c2ccccc2)c1)NO [Compound I-10, (2E)(4E)-5-(3-Phenylsulfonylaminophenyl)pentadienohydroxamic Acid] | 0.3 µM | 20.4 µM
2 | 6.4 µM | CN(c1cccc(/C=C/C=C/C(=O)NO)c1)S(=O)(=O)c1ccccc1 [Compound I-11] | 0.6 µM | 
3 | 8.3 µM | O=C(/C=C/C=C/c1cc2ccccc2n1S(=O)(=O)c1ccccc1)NO [Compound I-17, (2E)(4E)-5-(1-phenylsulfonylindol-2-yl)pentadienohydroxamic Acid] | 3.2 µM | 
4 | 6.3 µM | CN(c1cccc(C#C/C=C/C(=O)NO)c1)S(=O)(=O)c1ccccc1 [Compound I-19, (2E)-5-[3-(N-Methylphenylsulfonylamino)phenyl]pent-2-en-4-ynohydroxamic Acid] | 0.3 µM | 26.7 µM

Further lines, the compound ahead of its results:

Row | SMILES | IC50 [2] | minimal effective concentration [1] | IC50 [3]
5 | O=C(/C=C/C=C/c1ccccc1NS(=O)(=O)c1ccccc1)NO [Compound I-4, (2E)(4E)-5-(2-Phenylsulfonylaminophenyl)pentadienohydroxamic Acid] |  | 1.6 µM | 
6 | CN(c1ccccc1/C=C/C=C/C(=O)NO)S(=O)(=O)c1ccccc1 [Compound I-7, (2E)(4E) -5-[2-(N-Methylphenylsulfonylamino)phenyl]-2,4-pentadienohydroxamic Acid] | 4.5 µM | 0.2 µM | 
7 | O=C(/C=C/C=C/C=C/c1ccccc1NS(=O)(=O)c1ccccc1)NO [Compound I-9, (2E)(4E)(6E)-7-(2-Phenylsulfonylaminophenyl)-heptatrienohydroxamic Acid] | 6.5 µM | 3.2 µM | 25.6 µM
8 | O=C(/C=C/C=C/c1ccc(NS(=O)(=O)c2ccccc2)cc1)NO [Compound I-12, (2E)(4E)-5-(4-Phenylsulfonylaminophenyl)pentadienohydroxamic Acid] |  | 3.1 µM | 
9 | O=C(/C=C/C#Cc1cccc(NS(=O)(=O)c2ccccc2)c1)NO [Compound I-18, (2E)-5-[3-(Phenylsulfonylamino)phenyl]pent-2-en-4-ynohydroxamic Acid] | 2.5 µM | 0.039 µM | 13.8 µM
10 | O=C(/C=C/C=C/c1cc2ccccc2cc1NS(=O)(=O)c1ccccc1)NO [Compound I-20, (2E)(4E)-5-(3'-Phenylsulfonylamino-2'-naphthyl)pentadienohydroxamic Acid] |  | 0.6 µM | 

Source: patent US5534654A, “Aromatic-sulfonamide-type hydroxamic acid derivative” (Shionogi & Co., Ltd., priority 1991, dated 1996)
